Earlier results in US20080039428A1, “Antiretroviral combination therapy” (Panacos Pharmaceuticals, Inc., priority 2006, published 2008).

Tested on: HIV

C=C(C)[C@@H]1CC[C@]2(C(=O)O)CC[C@]3(C)[C@H](CC[C@@H]4[C@@]5(C)CC[C@H](OC(=O)CC(C)(C)C(=O)O)C(C)(C)[C@@H]5CC[C@]43C)[C@@H]12 [DSB, 3-O-(3′,3′-dimethylsuccinyl)betulinic acid]
inhibition of HIV replication: potent inhibitor of HIV replication
